Source: patent US4743617A, “Heterocyclyl-2-propyn-1-amines” (Merrell Dow Pharmaceuticals Inc., priority 1987, dated 1988)

Legend:
[1] = system: spontaneously hypertensive rats; experiment: lowering of mean blood pressure in conscious spontaneously hypertensive rats (Table II, DBH inhibitory activity in vivo); details: 30 mg/kg (ip), unanesthetized spontaneously hypertensive rats
Protocol: The ability of the compounds of this invention to lower blood pressure can be determined in vivo using standard and well-known procedures such as those employed for the continuous recording of arterial blood pressure in conscious animals. For instance, test compounds are administered intraperitoneally (ip) to unanesthetized spontaneously hypertensive rats and the arterial blood pressure is monitored continuously. In tests utilizing the above procedure, the antihypertensive effect of the test compound is readily apparent as indicated by the degree of lowering of mean blood pressure (MBP) noted in Table II.

[2] = system: dopamine-beta-hydroxylase (DBH); experiment: time-dependent DBH inhibitory activity in vitro (oxygen uptake, tyramine substrate); assay type: biochemical; details: Concentration 5 × 10^-5 M, preferably pH 5.0, 37° C.
Protocol: The DBH inhibitory properties of the compounds of this invention can readily be determined by standard and well-known procedures. […] The test compound is added at the desired concentration, and the system is incubated. At different time internals, aliquots are taken and DBH activity is measured using tyramine as the substrate. The reaction is followed by measuring oxygen uptake using a polarographic electrode and an oxygen monitor by the method of S. May et al., J. Bio. Chem. 256, 2258 (1981).

- t 1/2: time required for 50% log activity remaining [2]: 9.2 min.
SMILES: NCC#Cc1cccs1 [3-(2-thienyl)-2-propyn-1-amine]
- Duration [1]: 14 h
- Max Change MBP +/St. dev. [1]: -20+/-8 mm Hg
